Counter-ions that a name gives are not always drawn.

The source of these data is US20150080380A1, “Therapeutic Uses” (GLAXOSMITHKLINE INTELLECTUAL PROPERTY DEVELOPMENT LIMITED, priority 2012, published 2015).

For the first assay, the system named is OPC differentiation. The experiment in a line: Oligodendrocyte precursor cell (OPC) differentiation assay (MBP immunocytochemistry). It counts as cell-based, rat. The settings on record: Rattus norvegicus, Oligodendrocyte precursor cell, 96 h; 0.3 nM-10 uM, 4 days, FIG. 1; read-out: EC50, promotion of OPC differentiation (MBP+ population). As for the experimental part: The effects of small-molecule inverse agonists and neutral antagonists of histamine receptor 3 (H3R) on OPC differentiation were determined using the following assay.
The enriched OPC were obtained from dissecting 2-d-old rat pups forebrain. The pups were anesthetized and decapitated. Then the skull was cut with microdissecting scissors and the cortex was taken out with Dumont forceps. The meninges were removed with fine tips. After repeated trituration of the cortex through cell strainer, cells were re-suspended with the culture media consisted of DMEM supplemented with 20% Fetal bovine serum (Invitrogen, Carlsbad, Calif.), glutamine (4 mM, (Invitrogen), and plated onto poly-D-lysine (PDL, […] for 1 h, Sigma, St. Louis, Mo.)-coated T75 flasks. The resulting cultures were fed with fresh culture media twice per week and almost all the neurons will die due to the high concentration of serum in one week. Then the mixed glial cells were subjected to a series shake-off procedure to obtain pure OPCs two weeks later. Specifically, the mixed glial cells were shaken initially for 1 hour at 100 rpm to remove microglia and shaken for 20-22 hours at 37° C. at 200 rpm to enrich OPCs. OPCs were collected by centrifugation at 1200 rpm for 5 min, re-suspended in basal chemically defined medium (BDM). BDM consisted of DMEM supplemented with N2 medium (100×, Invitrogen), glutamine (4 mM, Invitrogen), BSA (0.1 mg/ml, Sigma), hydrocortisone (20 nM, Sigma), selenium (30 nM, Sigma) and biotin (10 nM, Sigma). OPCs were plated on poly-ornithine (PO, 50 μg/ml for 1 hr, Sigma)-coated culture dishes and maintained in BDM supplemented with bFGF (10 ng/ml, Invitrogen) and PDGF (10 ng/ml, PeproTech, Rocky Hill, N.J.) before experimental manipulation. OPCs were 95% pure judged by A2B5+ staining.
To initiate OPC differentiation, OPCs were firstly treated with 0.05% Trypsin/EDTA, and seeded into PO-coated 384-mini well plate at a density of 2,000 to 5,000 cells/well. Each test compound was dissolved in DMSO at the concentration of 10 mM for the assay. Compounds at different concentrations (full dose curve, 0.3 nM-10 uM) were added into the OPC culture in duplicates with Echo machine (Thermo, Waltham, Mass.). OPCs were cultured in BDM supplemented with N-acetyl-L-cystenine (30 μM, Sigma) to differentiate into mature oligodendrocytes for 4 days. BDM comprise DMEM (Invitrogen), N2 (100×, Invitrogen), L-Glu (50×, Invitrogen), Sodium Pyruvate (100×, Invitrogen), BSA (0.1%, Sigma), Biotin (10 nM, Sigma), hydrocortisone (10 nM, Sigma). The resulting cultures were fixed with 4% polyformaldehyde (Sigma) and samples were blocked with the blocking buffer (Donkey Serum 3%, Sigma; Triton X-100 0.04%, Sigma). Then fixed cells were incubated in primary antibodies (anti-myelin basic protein, MBP antibody, 600× dilution in blocking buffer) overnight at 4° C., washed thoroughly with PBS and then incubated with Alexa 488-labeled secondary antibody (Molecular Probes, Invitrogen) for 2 h at R.T; then washed thoroughly with PBS and stained with Dapi (1 ug/ml, Sigma),
The full-plate immunocytochemistry staining was read by an automatic image-based analysis system-Cellomics (Thermo) and the raw data for each well was acquired as percentage of MBP+ population as follows: Pictures of eight fields per well were captured and analyzed quantitatively; the well data is the average of 8 fields. The intensity of anti-MBP staining in the cytosol was used as the criteria of positive objects. The threshold of positive objects was set based on the average intensity of the positive control well, for which triiodothyronine (15 nM) was used. Then the data was analyzed and presented as fold change of the number of the vehicle control well. Graphs were generated by softwares: Microsoft Excel and IDBS XL fits. The curve fitting was performed with software XL fits to derive EC50 of the positive compounds.
All data except FIG. 1 are given as mean±standard error of the mean (SEM). […]
Consider `CC(C)N1CCC(OC2CCN(c3ccc(C#N)cc3)CC2)CC1` [Example compound 3, 4-(4-((1-isopropylpiperidin-4-yl)oxy)piperidin-1-yl)benzonitrile hydrochloride], for which the EC50 was found to be 0.031 µM.
Still for that read-out and setting: in the case of `N=C(NCc1ccc(Cl)cc1)SCCCc1c[nH]cn1` [Example compound 8, 3-(1H-imidazol-4-yl)propyl 4-chlorobenzylcarbamimidothioate dihydrobromide, reference compound] it was 0.048 µM; in that of `C[C@@H]1CCCN1CCCOc1ccc(-c2ccc(=O)[nH]n2)cc1` [Example compound 7, (R)-6-(4-(3-(2-methylpyrrolidin-1-yl)propoxy)phenyl)pyridazin-3(2H)-one, reference compound], 0.25 µM.
On the same count and under the same terms, in the case of `Clc1ccc(CCCOCCCN2CCCCC2)cc1` [Example compound 6, 1-(3-(3-(4-chlorophenyl)propoxy)propyl)piperidine, reference compound] it was 0.014 µM.

The same assay, now with this note: all concentrations (0.3 nM-10 uM), FIG. 1b.
For `c1ccc(COCCCc2cnc[nH]2)cc1` [Example compound 4, 4-[3-(Phenylmethoxy)propyl]-1H-imidazole oxalate, reference compound], the “effect on OPC differentiation” value is listed as “didn't show any effect”.
On the same count and under the same terms, in the case of `c1nc(CCCC2CCNCC2)c[nH]1` [Example compound 5, 4-[3-(1H-Imidazol-4-yl)propyl]piperidine dihydrobromide, reference compound] it was “didn't show any effect”.
